Patent US8658604B2, “Template-fixed beta-hairpin peptidomimetics with protease inhibitory activity” (Polyphor Ltd, priority 2005, dated 2014)
Where a SMILES comes first, the peptide text is derived from it.

What was measured:
[1] = biological target: T1, CathepsinG, from human neutrophils (Homo sapiens, UniProt P08311); assay: Enzymatic assay, cathepsin G; settings: Cathepsin G IC50
T1 sequence (P08311 21-244): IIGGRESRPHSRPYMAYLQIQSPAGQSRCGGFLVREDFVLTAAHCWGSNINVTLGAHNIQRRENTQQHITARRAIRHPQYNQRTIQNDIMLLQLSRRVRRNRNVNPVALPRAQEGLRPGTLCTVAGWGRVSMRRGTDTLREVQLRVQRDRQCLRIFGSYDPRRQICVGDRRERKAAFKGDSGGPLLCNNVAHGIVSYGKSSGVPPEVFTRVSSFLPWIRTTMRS

[2] = biological target: T2, Elastase from human neutrophils (Homo sapiens, UniProt P08246); assay: Enzymatic assay, elastase; settings: Elastase IC50
T2 sequence (P08246 30-267): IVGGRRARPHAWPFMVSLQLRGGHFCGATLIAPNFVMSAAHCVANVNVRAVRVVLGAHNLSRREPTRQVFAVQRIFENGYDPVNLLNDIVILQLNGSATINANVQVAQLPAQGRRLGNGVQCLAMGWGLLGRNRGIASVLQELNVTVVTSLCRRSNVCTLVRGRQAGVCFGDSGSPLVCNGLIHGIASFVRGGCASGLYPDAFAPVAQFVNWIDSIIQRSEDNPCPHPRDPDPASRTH

[3] = biological target: Chymotrypsin, from human pancreas (Homo sapiens, UniProt P17538); assay: Enzymatic assay, chymotrypsin
Sequence of Chymotrypsin, from human pancreas (P17538 19-263): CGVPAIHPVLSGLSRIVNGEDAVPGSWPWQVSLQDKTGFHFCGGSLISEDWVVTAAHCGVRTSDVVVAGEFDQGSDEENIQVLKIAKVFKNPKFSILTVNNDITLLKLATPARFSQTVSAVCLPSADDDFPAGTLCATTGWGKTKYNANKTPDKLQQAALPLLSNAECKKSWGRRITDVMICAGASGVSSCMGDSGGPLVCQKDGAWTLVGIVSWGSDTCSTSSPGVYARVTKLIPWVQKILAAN

[4] = biological target: Trypsin, from human pancreas (Homo sapiens, UniProt P07477); assay: Enzymatic assay, trypsin
[5] = system: Tryptase, from human lung; assay: Enzymatic assay, tryptase; settings: for IC50: read-out: Tryptase IC50

With `CC[C@H](C)[C@@H]1NC(=O)[C@@H]2CCCN2C(=O)[C@@H]2CCCN2C(=O)[C@H](CC(=O)O)NC(=O)[C@H](CO)NC(=O)[C@H](CCCCN)NC(=O)[C@H]([C@@H](C)O)NC(=O)[C@@H]2CSSC[C@H](NC1=O)C(=O)N[C@@H](CO)C(=O)N1CCC[C@@H]1C(=O)N1[C@@H](c3ccccc3)CC[C@H]1C(=O)N[C@@H](Cc1ccccc1)C(=O)N2` [Ex. 48] (HELM PEPTIDE1{C.S.[dP].[O=C([C@@H]1CC[C@H](c2ccccc2)N1[*:1])[*:2]].F.C.T.K.S.D.P.P.I}$PEPTIDE1,PEPTIDE1,1:R3-6:R3|PEPTIDE1,PEPTIDE1,1:R1-13:R2$$$V2.0) the IC50 [1] was 83 nM, the IC50 [2] was over 100000 nM and the “Chymotrypsin at 100 μM %” value [3] was 3%. The “Trypsin at 100 μM %” value [4] was 93%.

In the case of `CC[C@@H](C)[C@H]1NC(=O)[C@H](CO)NC(=O)[C@@H]2CSSC[C@H](NC(=O)[C@H](Cc3ccccc3)NC(=O)[C@@H]3CCCN3C1=O)C(=O)N[C@@H]([C@@H](C)O)C(=O)N[C@@H](CCCCN)C(=O)N[C@@H](CO)C(=O)N[C@@H](CC(=O)O)C(=O)N1CCC[C@H]1C(=O)N1CCC[C@H]1C(=O)N[C@@H]([C@@H](C)CC)C(=O)N2` [Ex. 50] (HELM PEPTIDE1{F.C.T.K.S.D.P.P.I.C.S.[dI].P}$PEPTIDE1,PEPTIDE1,2:R3-10:R3|PEPTIDE1,PEPTIDE1,1:R1-13:R2$$$V2.0), the IC50 [1] is reported as 89 nM, the IC50 [2] is reported as over 100000 nM and the “Chymotrypsin at 100 μM %” value [3] is reported as 0%. For the same compound, the “Trypsin at 100 μM %” value [4] was 94%.

In the case of `CCCC[C@@H]1NC(=O)[C@@H]2CCCN2C(=O)[C@@H](Cc2ccccc2)NC(=O)[C@H](Cc2ccc(O)cc2)NC(=O)[C@@H]2CSSC[C@H](NC1=O)C(=O)N[C@@H]([C@@H](C)O)C(=O)N[C@@H](C)C(=O)N[C@@H](CO)C(=O)N[C@@H]([C@@H](C)CC)C(=O)N1CCC[C@H]1C(=O)N1CCC[C@H]1C(=O)N[C@@H](CCC(N)=O)C(=O)N2` [Ex. 116] (HELM PEPTIDE1{A.S.I.P.P.Q.C.Y.[dF].P.[Nle].C.T}$PEPTIDE1,PEPTIDE1,7:R3-12:R3|PEPTIDE1,PEPTIDE1,1:R1-13:R2$$$V2.0), the IC50 [2] is reported as 46 nM, the IC50 [3] is reported as 39700 nM and the “Trypsin at 100 μM %” value [4] is reported as 0%.

With `CCCC[C@@H]1NC(=O)[C@@H]2CCCN2C(=O)[C@H]2CCCN2C(=O)[C@H](c2ccccc2)NC(=O)[C@@H]2CSSC[C@H](NC1=O)C(=O)N[C@@H]([C@@H](C)O)C(=O)N[C@@H](C)C(=O)N[C@@H](CO)C(=O)N[C@@H]([C@@H](C)CC)C(=O)N1CCC[C@H]1C(=O)N1CCC[C@H]1C(=O)N[C@@H](CCC(N)=O)C(=O)N2` [Ex. 136] (HELM PEPTIDE1{[Nle].C.T.A.S.I.P.P.Q.C.[Phg].[dP].P}$PEPTIDE1,PEPTIDE1,2:R3-10:R3|PEPTIDE1,PEPTIDE1,1:R1-13:R2$$$V2.0) the “Tryptase At 100 μM %” value ([5]; at 100 μM) was 0% and the “Chymotrypsin at 100 μM %” value [3] was 67.9%.

With `CC[C@H](C)[C@@H]1NC(=O)[C@@H]2CCCN2C(=O)[C@H]2CCCN2C(=O)[C@H](CCCNC(=N)N)NC(=O)[C@@H]2CSSC[C@H](NC1=O)C(=O)N[C@@H]([C@@H](C)O)C(=O)N[C@@H](CCCCN)C(=O)N[C@@H](CO)C(=O)N[C@@H](CC(C)C)C(=O)N1CCC[C@H]1C(=O)N1CCC[C@H]1C(=O)N[C@@H](Cc1c[nH]cn1)C(=O)N2` [Ex. 187] (HELM PEPTIDE1{I.C.T.K.S.L.P.P.H.C.R.[dP].P}$PEPTIDE1,PEPTIDE1,2:R3-10:R3|PEPTIDE1,PEPTIDE1,1:R1-13:R2$$$V2.0) the IC50 [1] was 158 nM, the IC50 [5] was under 100 nM and the IC50 [4] was 39 nM.

`CC[C@H](C)[C@@H]1NC(=O)[C@@H]2CCCN2C(=O)[C@H]2CCCN2C(=O)[C@H](CCCNC(=N)N)NC(=O)[C@@H]2CSSC[C@H](NC1=O)C(=O)N[C@@H]([C@@H](C)O)C(=O)N[C@@H](CCCCN)C(=O)N[C@@H](CO)C(=O)N[C@@H](CC(C)C)C(=O)N1CCC[C@H]1C(=O)N1CCC[C@H]1C(=O)N[C@@H](CCC(N)=O)C(=O)N2` [Ex. 188] (HELM PEPTIDE1{I.C.T.K.S.L.P.P.Q.C.R.[dP].P}$PEPTIDE1,PEPTIDE1,2:R3-10:R3|PEPTIDE1,PEPTIDE1,1:R1-13:R2$$$V2.0) was tested, and the IC50 [1] was 105 nM, the IC50 [5] was under 100 nM and the IC50 [4] was 34 nM.

`CC[C@H](C)[C@@H]1NC(=O)[C@@H]2CCCN2C(=O)[C@H]2CCCN2C(=O)[C@H](CCCNC(=N)N)NC(=O)[C@@H]2CSSC[C@H](NC1=O)C(=O)N[C@@H]([C@@H](C)O)C(=O)N[C@@H](CCCCN)C(=O)N[C@@H](CO)C(=O)N[C@@H](CC(C)C)C(=O)N1CCC[C@H]1C(=O)N1CCC[C@H]1C(=O)N[C@@H]([C@@H](C)O)C(=O)N2` [Ex. 189] (HELM PEPTIDE1{I.C.T.K.S.L.P.P.T.C.R.[dP].P}$PEPTIDE1,PEPTIDE1,2:R3-10:R3|PEPTIDE1,PEPTIDE1,1:R1-13:R2$$$V2.0) was tested, and the IC50 [1] was 164 nM, the IC50 [5] was under 100 nM and the IC50 [4] was 39 nM.

`CC[C@H](C)[C@@H]1NC(=O)[C@@H]2CCCN2C(=O)[C@H]2CCCN2C(=O)[C@H](CCCCN)NC(=O)[C@@H]2CSSC[C@H](NC1=O)C(=O)N[C@@H]([C@@H](C)O)C(=O)N[C@@H](CCCCN)C(=O)N[C@@H](CO)C(=O)N[C@@H](CC(C)C)C(=O)N1CCC[C@H]1C(=O)N1CCC[C@H]1C(=O)N[C@@H](CCCNC(=N)N)C(=O)N2` [Ex. 190] (HELM PEPTIDE1{I.C.T.K.S.L.P.P.R.C.K.[dP].P}$PEPTIDE1,PEPTIDE1,2:R3-10:R3|PEPTIDE1,PEPTIDE1,1:R1-13:R2$$$V2.0) showed an IC50 [1] of 1500 nM, an IC50 [5] of under 100 nM and an IC50 [4] of 172 nM.

For `CC(C)C[C@@H]1NC(=O)[C@@H]2CCCN2C(=O)[C@H]2CCCN2C(=O)[C@H](CCCNC(=N)N)NC(=O)[C@@H]2CSSC[C@H](NC1=O)C(=O)N[C@@H]([C@@H](C)O)C(=O)N[C@@H](CCCCN)C(=O)N[C@@H](CO)C(=O)N[C@@H](CC(C)C)C(=O)N1CCC[C@H]1C(=O)N1CCC[C@H]1C(=O)N[C@@H](CCCCN)C(=O)N2` [Ex. 191] (HELM PEPTIDE1{L.C.T.K.S.L.P.P.K.C.R.[dP].P}$PEPTIDE1,PEPTIDE1,2:R3-10:R3|PEPTIDE1,PEPTIDE1,1:R1-13:R2$$$V2.0), the IC50 [1] was 400 nM, the IC50 [5] was 21 nM and the IC50 [4] was 66 nM.

`CCCC[C@@H]1NC(=O)[C@@H]2CCCN2C(=O)[C@H]2CCCN2C(=O)[C@H](CCCNC(=N)N)NC(=O)[C@@H]2CSSC[C@H](NC1=O)C(=O)N[C@@H]([C@@H](C)O)C(=O)N[C@@H](CCCCN)C(=O)N[C@@H](CO)C(=O)N[C@@H](CC(C)C)C(=O)N1CCC[C@H]1C(=O)N1CCC[C@H]1C(=O)N[C@@H](CCCCN)C(=O)N2` [Ex. 192] (HELM PEPTIDE1{[Nle].C.T.K.S.L.P.P.K.C.R.[dP].P}$PEPTIDE1,PEPTIDE1,2:R3-10:R3|PEPTIDE1,PEPTIDE1,1:R1-13:R2$$$V2.0) showed an IC50 [1] of 650 nM, an IC50 [5] of 16 nM and an IC50 [4] of 72 nM.

In the case of `CC(C)C[C@@H]1NC(=O)[C@H](CO)NC(=O)[C@H](CCCCN)NC(=O)[C@H]([C@@H](C)O)NC(=O)[C@@H]2CSSC[C@H](NC(=O)[C@H](CCCCN)NC(=O)[C@@H]3CCCN3C(=O)[C@@H]3CCCN3C1=O)C(=O)N[C@@H](CCCNC(=N)N)C(=O)N1CCC[C@@H]1C(=O)N1CCC[C@H]1C(=O)N[C@@H](CC1CCCCC1)C(=O)N2` [Ex. 193] (HELM PEPTIDE1{[Cha].C.T.K.S.L.P.P.K.C.R.[dP].P}$PEPTIDE1,PEPTIDE1,2:R3-10:R3|PEPTIDE1,PEPTIDE1,1:R1-13:R2$$$V2.0), the IC50 [1] is reported as 431 nM, the IC50 [5] is reported as 6 nM and the IC50 [4] is reported as 35 nM.

`CC(C)C[C@@H]1NC(=O)[C@H](CO)NC(=O)[C@H](CCCCN)NC(=O)[C@H]([C@@H](C)O)NC(=O)[C@@H]2CSSC[C@H](NC(=O)[C@H](CCCCN)NC(=O)[C@@H]3CCCN3C(=O)[C@@H]3CCCN3C1=O)C(=O)N[C@@H](CCCNC(=N)N)C(=O)N1CCC[C@@H]1C(=O)N1CCC[C@H]1C(=O)N[C@@H](Cc1ccc(O)cc1)C(=O)N2` [Ex. 194] (HELM PEPTIDE1{Y.C.T.K.S.L.P.P.K.C.R.[dP].P}$PEPTIDE1,PEPTIDE1,2:R3-10:R3|PEPTIDE1,PEPTIDE1,1:R1-13:R2$$$V2.0) gave an IC50 [1] of 1570 nM, an IC50 [5] of 9 nM and an IC50 [4] of 431 nM.

Compound `CC(C)C[C@@H]1NC(=O)[C@H](CO)NC(=O)[C@H](CCCCN)NC(=O)[C@H]([C@@H](C)O)NC(=O)[C@@H]2CSSC[C@H](NC(=O)[C@H](CCCCN)NC(=O)[C@@H]3CCCN3C(=O)[C@@H]3CCCN3C1=O)C(=O)N[C@@H](CCCNC(=N)N)C(=O)N1CCC[C@@H]1C(=O)N1CCC[C@H]1C(=O)N[C@@H](Cc1c[nH]c3ccccc13)C(=O)N2` [Ex. 195] (HELM PEPTIDE1{W.C.T.K.S.L.P.P.K.C.R.[dP].P}$PEPTIDE1,PEPTIDE1,2:R3-10:R3|PEPTIDE1,PEPTIDE1,1:R1-13:R2$$$V2.0) has an IC50 [1] of 4000 nM, an IC50 [5] of 12 nM and an IC50 [4] of 108 nM.

For `CC(C)C[C@@H]1NC(=O)[C@H](CO)NC(=O)[C@H](CCCCN)NC(=O)[C@H]([C@@H](C)O)NC(=O)[C@@H]2CSSC[C@H](NC(=O)[C@H](CCCCN)NC(=O)[C@@H]3CCCN3C(=O)[C@@H]3CCCN3C1=O)C(=O)N[C@@H](Cc1ccc(O)cc1)C(=O)N1CCC[C@@H]1C(=O)N1CCC[C@H]1C(=O)N[C@@H](CCCNC(=N)N)C(=O)N2` [Ex. 196] (HELM PEPTIDE1{R.C.T.K.S.L.P.P.K.C.Y.[dP].P}$PEPTIDE1,PEPTIDE1,2:R3-10:R3|PEPTIDE1,PEPTIDE1,1:R1-13:R2$$$V2.0), the IC50 [1] was 2170 nM, the IC50 [5] was 52 nM and the IC50 [4] was 70 nM.
